Four compounds from patent publication US20080234288A1, “Hcv Inhibiting Sulfonamides” (priority 2003, published 2008) can be followed below.

The structures appear in SMILES notation.

This test concerns HCV replicon (NS3-NS5B regions of HCV type 1b) in Huh-7 luc/neo cells. Nature of the test: HCV replicon assay, stable replicon cell reporter assay (Huh-Luc, luciferase). It is filed as cell-based. The note with it: Hepatitis C virus, Huh-7, 72 h, incubation of three days, luciferase activity. From the text: The compounds of the present invention were examined for activity in the inhibition of HCV RNA replication in a cellular assay. […] The cellular assay was based on a bicistronic expression construct, as described by Lohmann et al. (1999) Science vol. 285 pp. 110-113 with modifications described by Krieger et al. (2001) Journal of Virology 75: 4614-4624, in a multi-target screening strategy. In essence, the method is as follows.
The assay utilized the stably transfected cell line Huh-7 luc/neo (hereafter referred to as Huh-Luc; kindly provided by Dr Ralf Bartenschlager, Reblikon GmBh, Germany). This cell line harbors an RNA encoding a bicistronic expression construct comprising the wild type NS3-NS5B regions of HCV type 1b translated from an Internal Ribosome Entry Site (IRES) from encephalomyocarditis virus (EMCV), preceded by a reporter portion (FfL-luciferase), and a selectable marker portion (neo^R, neomycine phosphotransferase). The construct was bordered by 5′ and 3′ NTRs (non-translated regions) from HCV type 1b. Continued culture of the replicon cells in the presence of G418 (neo^R) is dependent on the replication of the HCV RNA. The stably transfected replicon cells that express HCV RNA, which replicates autonomously and to high levels, encoding inter alia luciferase, were used for screening the antiviral compounds.
The replicon cells were plated in 384 well plates in the presence of the test and control compounds which were added in various concentrations. Following an incubation of three days, HCV replication was measured by assaying luciferase activity (using standard luciferase assay substrates and reagents and a Perkin Elmer ViewLux™ ultraHTS microplate imager). Replicon cells in the control cultures have high luciferase expression in the absence of any inhibitor. The inhibitory activity of the compound on luciferase activity was monitored on the Huh-Luc cells, enabling a dose-response curve for each test compound. EC50 values were then calculated, which value represents the amount of the compound required to decrease by 50% the level of detected luciferase activity, or more specifically, the ability of the genetically linked HCV replicon RNA to replicate (Table 1).
Broadly, the EC50 is the concentration that produces a half-maximal response. The compound `CCOC(=O)Nc1nc2ccc(S(=O)(=O)N(CC(C)C)CC(O)C(Cc3ccccc3)NC(=O)OCc3cncs3)cc2o1` (stereo not shown) [Compound 2, (6-{[2-Hydroxy-4-phenyl-3-(thiazol-5-ylmethoxycarbonyl-amino)-butyl]-isobutyl-sulfamoyl}-benzooxazol-2-yl)-carbamic acid ethyl ester] registered a 50% effective concentration (EC50) of 10 to 32 µM.

Regarding `CC(C)CN(CC(O)C(Cc1ccccc1)NC(=O)OCc1cncs1)S(=O)(=O)c1ccc2nc(NC(=O)CN(C)C)oc2c1` (stereo not shown) [Compound 29, (1-Benzyl-3-{[2-(2-dimethylamino-acetylamino)-benzo-oxazole-6-sulfonyl]-isobutyl-amino}-2-hydroxy-propyl)-carbamic acid thiazol-5-ylmethyl ester], the EC50 is 2 to 10 µM.

Take `CC(C)CN(CC(O)C(Cc1ccccc1)NC(=O)OCc1cncs1)S(=O)(=O)c1ccc2nc(N)sc2c1` (stereo not shown) [Compound 13, {3-[(2-Amino-benzothiazole-6-sulfonyl)-isobutyl-amino]-1-benzyl-2-hydroxy-propyl}-carbamic acid thiazol-5-ylmethyl ester]: the EC50 fell in the range of 2 to 10 µM.

Take `CC(C)CN(CC(O)C(Cc1ccccc1)NC(=O)OCc1cncs1)S(=O)(=O)c1ccc2nc(NC(=O)C3CCCN3C)oc2c1` (stereo not shown) [Compound 11, [1-Benzyl-2-hydroxy-3-(isobutyl-{2-[(1-methyl-pyrrolidine-2-carbonyl)-amino]-benzooxazole-6-sulfonyl}-amino)-propyl]-carbamic acid thiazol-5-ylmethyl ester]: the EC50 was in the range of 2 to 10 µM.
